Results taken from PubChem BioAssay (NCI).
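Following 48 hours of exposure in 96-well plates, responses at five concentrations were used to interpolate endpoints linearly. The concentration for full growth arrest is given as TGI.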

Assays:
Assay in all cases: NCI anticancer screen, dose series, 48 h
SF-295 CNS = system: SF-295 CNS
MDA-MB-435 = system: MDA-MB-435
HOP-62 NSCLC = system: HOP-62 NSCLC
CAKI-1 renal = system: CAKI-1 renal
SK-MEL-2 melanoma = system: SK-MEL-2 melanoma
786-0 renal = system: 786-0 renal
IGROV1 ovarian = system: IGROV1 ovarian
OVCAR-8 ovarian = system: OVCAR-8 ovarian
OVCAR-4 ovarian = system: OVCAR-4 ovarian
MALME-3M melanoma = system: MALME-3M melanoma
SF-268 CNS = system: SF-268 CNS
SNB-75 CNS = system: SNB-75 CNS
SNB-19 CNS = system: SNB-19 CNS
MDA-N = system: MDA-N
U251 CNS = system: U251 CNS
BT-549 breast = system: BT-549 breast
OVCAR-5 ovarian = system: OVCAR-5 ovarian
HT29 colon = system: HT29 colon
CCRF-CEM leukemia = system: CCRF-CEM leukemia
SK-MEL-5 melanoma = system: SK-MEL-5 melanoma
UO-31 renal = system: UO-31 renal
HCT-15 colon = system: HCT-15 colon
NCI-H460 lung = system: NCI-H460 lung
M14 melanoma = system: M14 melanoma
HCC-2998 colon = system: HCC-2998 colon
MOLT-4 leukemia = system: MOLT-4 leukemia
OVCAR-3 ovarian = system: OVCAR-3 ovarian
SR leukemia = system: SR leukemia
EKVX NSCLC = system: EKVX NSCLC
MDA-MB-231 breast = system: MDA-MB-231 breast
UACC-62 melanoma = system: UACC-62 melanoma
HS 578T breast = system: HS 578T breast
K-562 leukemia = system: K-562 leukemia
NCI-H522 lung = system: NCI-H522 lung
MCF7 breast = system: MCF7 breast
SN12C renal = system: SN12C renal
SK-MEL-28 melanoma = system: SK-MEL-28 melanoma
T-47D breast = system: T-47D breast
LOX IMVI melanoma = system: LOX IMVI melanoma
SK-OV-3 ovarian = system: SK-OV-3 ovarian
COLO 205 colon = system: COLO 205 colon
HOP-92 NSCLC = system: HOP-92 NSCLC
KM12 colon = system: KM12 colon
NCI-H23 lung = system: NCI-H23 lung
NCI/ADR-RES ovarian = system: NCI/ADR-RES ovarian
PC-3 prostate = system: PC-3 prostate
UACC-257 melanoma = system: UACC-257 melanoma
SW-620 colon = system: SW-620 colon
TK-10 renal = system: TK-10 renal
RPMI-8226 leukemia = system: RPMI-8226 leukemia
A549 NSCLC = system: A549 NSCLC
NCI-H226 lung = system: NCI-H226 lung
A498 renal = system: A498 renal
SF-539 CNS = system: SF-539 CNS
ACHN renal = system: ACHN renal
HCT-116 colon = system: HCT-116 colon
DU-145 prostate = system: DU-145 prostate
RXF 393 renal = system: RXF 393 renal

CCC1(O)CC(OC2CC(N(C)C)C(OC3CC(O)C(OC4CCC(=O)C(C)O4)C(C)O3)C(C)O2)c2c(cc3c(c2O)C(=O)c2c(O)ccc(O)c2C3=O)C1C(=O)OC (stereo not drawn)
TGI (SF-295 CNS): 0.441 µM
TGI (MDA-MB-435): 0.409 µM
TGI (HOP-62 NSCLC): 0.156 µM
TGI (CAKI-1 renal): < 0.01 µM
TGI (SK-MEL-2 melanoma): 0.0148 µM
TGI (786-0 renal): 0.493 µM
TGI (IGROV1 ovarian): 1.22 µM
TGI (OVCAR-8 ovarian): 0.0739 µM
TGI (OVCAR-4 ovarian): 0.214 µM
TGI (MALME-3M melanoma): 0.029 µM
TGI (SF-268 CNS): 0.208 µM
TGI (SNB-75 CNS): 0.0846 µM
TGI (SNB-19 CNS): 2.41 µM
TGI (MDA-N): 0.0251 µM
TGI (U251 CNS): 2.22 µM
TGI (BT-549 breast): 1.78 µM
TGI (OVCAR-5 ovarian): 10.8 µM
TGI (HT29 colon): < 0.0105 µM
TGI (CCRF-CEM leukemia): 0.0528 µM
TGI (SK-MEL-5 melanoma): 0.0282 µM
TGI (UO-31 renal): < 0.01 µM
TGI (HCT-15 colon): 0.018 µM
TGI (NCI-H460 lung): < 0.01 µM
TGI (M14 melanoma): 0.0516 µM
TGI (HCC-2998 colon): < 0.0112 µM
TGI (MOLT-4 leukemia): 0.0101 µM
TGI (OVCAR-3 ovarian): 0.186 µM
TGI (SR leukemia): < 0.01 µM
TGI (EKVX NSCLC): 0.116 µM
TGI (MDA-MB-231 breast): 0.113 µM
TGI (UACC-62 melanoma): < 0.0132 µM
TGI (HS 578T breast): 0.384 µM
TGI (K-562 leukemia): < 0.01 µM
TGI (NCI-H522 lung): < 0.01 µM
TGI (MCF7 breast): 2.01 µM
TGI (SN12C renal): 1.18 µM
TGI (SK-MEL-28 melanoma): 0.211 µM
TGI (T-47D breast): 0.597 µM
TGI (LOX IMVI melanoma): < 0.01 µM
TGI (SK-OV-3 ovarian): 13.3 µM
TGI (COLO 205 colon): 0.0131 µM
TGI (HOP-92 NSCLC): 0.0185 µM
TGI (KM12 colon): 0.0994 µM
TGI (NCI-H23 lung): 0.0343 µM
TGI (NCI/ADR-RES ovarian): 0.259 µM
TGI (PC-3 prostate): 0.393 µM
TGI (UACC-257 melanoma): 0.0294 µM
TGI (SW-620 colon): 3.56 µM
TGI (TK-10 renal): 0.0339 µM
TGI (RPMI-8226 leukemia): 0.0109 µM

COC(=O)/C1=C/c2c([nH]c3ccccc23)/C(C(=O)OC)=C\c2c1[nH]c1ccccc21
TGI (SF-295 CNS): > 50 µM
TGI (MDA-MB-435): > 50 µM
TGI (HOP-62 NSCLC): > 50 µM
TGI (CAKI-1 renal): > 50 µM
TGI (SK-MEL-2 melanoma): > 50 µM
TGI (786-0 renal): > 50 µM
TGI (IGROV1 ovarian): 38.9 µM
TGI (OVCAR-8 ovarian): > 50 µM
TGI (A549 NSCLC): > 50 µM
TGI (MALME-3M melanoma): > 50 µM
TGI (SF-268 CNS): > 50 µM
TGI (SNB-19 CNS): > 50 µM
TGI (MDA-N): > 50 µM
TGI (U251 CNS): > 50 µM
TGI (BT-549 breast): > 50 µM
TGI (OVCAR-5 ovarian): > 50 µM
TGI (SK-MEL-5 melanoma): > 50 µM
TGI (UO-31 renal): > 50 µM
TGI (HCT-15 colon): > 50 µM
TGI (NCI-H460 lung): > 50 µM
TGI (M14 melanoma): > 50 µM
TGI (OVCAR-3 ovarian): > 50 µM
TGI (EKVX NSCLC): > 50 µM
TGI (MDA-MB-231 breast): > 50 µM
TGI (UACC-62 melanoma): > 50 µM
TGI (HS 578T breast): > 50 µM
TGI (NCI-H226 lung): > 50 µM
TGI (NCI-H522 lung): 22 µM
TGI (A498 renal): > 50 µM
TGI (MCF7 breast): > 50 µM
TGI (SN12C renal): > 50 µM
TGI (SF-539 CNS): > 50 µM
TGI (T-47D breast): > 50 µM
TGI (LOX IMVI melanoma): > 50 µM
TGI (SK-OV-3 ovarian): > 50 µM
TGI (ACHN renal): > 50 µM
TGI (COLO 205 colon): > 50 µM
TGI (KM12 colon): > 50 µM
TGI (NCI-H23 lung): > 50 µM
TGI (NCI/ADR-RES ovarian): > 50 µM
TGI (HCT-116 colon): > 50 µM
TGI (UACC-257 melanoma): > 50 µM
TGI (SW-620 colon): > 50 µM
TGI (TK-10 renal): > 50 µM
TGI (DU-145 prostate): > 50 µM
TGI (RXF 393 renal): 33.3 µM

NS(=O)(=O)c1nnc(NS(=O)(=O)c2ccc(F)cc2)s1
TGI (SF-295 CNS): > 100 µM
TGI (MDA-MB-435): > 100 µM
TGI (HOP-62 NSCLC): > 100 µM
TGI (CAKI-1 renal): > 100 µM
TGI (SK-MEL-2 melanoma): > 100 µM
TGI (786-0 renal): > 100 µM
TGI (OVCAR-8 ovarian): > 100 µM
TGI (A549 NSCLC): > 100 µM
TGI (OVCAR-4 ovarian): > 100 µM
TGI (SF-268 CNS): > 100 µM
TGI (SNB-19 CNS): > 100 µM
TGI (MDA-N): > 100 µM
TGI (U251 CNS): > 100 µM
TGI (BT-549 breast): > 100 µM
TGI (OVCAR-5 ovarian): > 100 µM
TGI (CCRF-CEM leukemia): > 100 µM
TGI (SK-MEL-5 melanoma): > 100 µM
TGI (UO-31 renal): > 100 µM
TGI (HCT-15 colon): > 100 µM
TGI (NCI-H460 lung): > 100 µM
TGI (M14 melanoma): > 100 µM
TGI (HCC-2998 colon): > 100 µM
TGI (MOLT-4 leukemia): > 100 µM
TGI (OVCAR-3 ovarian): > 100 µM
TGI (SR leukemia): > 100 µM
TGI (EKVX NSCLC): > 100 µM
TGI (MDA-MB-231 breast): > 100 µM
TGI (UACC-62 melanoma): > 100 µM
TGI (HS 578T breast): > 100 µM
TGI (NCI-H226 lung): > 100 µM
TGI (K-562 leukemia): > 100 µM
TGI (A498 renal): > 100 µM
TGI (MCF7 breast): > 100 µM
TGI (SN12C renal): > 100 µM
TGI (SK-MEL-28 melanoma): > 100 µM
TGI (SF-539 CNS): > 100 µM
TGI (T-47D breast): > 100 µM
TGI (LOX IMVI melanoma): > 100 µM
TGI (SK-OV-3 ovarian): > 100 µM
TGI (ACHN renal): > 100 µM
TGI (COLO 205 colon): > 100 µM
TGI (HOP-92 NSCLC): > 100 µM
TGI (KM12 colon): > 100 µM
TGI (NCI-H23 lung): > 100 µM
TGI (NCI/ADR-RES ovarian): > 100 µM
TGI (HCT-116 colon): > 100 µM
TGI (UACC-257 melanoma): > 100 µM
TGI (SW-620 colon): > 100 µM
TGI (TK-10 renal): > 100 µM
TGI (DU-145 prostate): > 100 µM
TGI (RXF 393 renal): > 100 µM
TGI (RPMI-8226 leukemia): > 100 µM
